Reference: patent publication US7390874B2 (Kuboyama Bio Ken, Inc., priority 2003, dated 2008)
Read-outs that look alike come from different tables or passages of the source. Ends that are not written are not given here.

What was measured:
[1] = Body weight gains of rats in the adjuvant-induced arthritis study; type: in vivo, male Sprague-Dawley rats
Experimental: (§1) Rats weighting between 150-200 g were purchased from Animal Technologies Ltd., Kent, Wash. They were male Sprague-Dawley rats. The animals were kept individually in stainless steel cages with free access to water and feed (Harlan Teklan Rodent Diet). The light cycle was maintained at 12 hours light and 12 hours dark. The temperature was maintained at 22° C.±3° C. with a relative humidity of 40 to 70%.
The test materials were given orally (by gavage) to each of 5 rats per treatment group once per day for 10 days. Administration of the test materials was initiated on the day of sensitization.
(§2) The left hind paw was measured just before sensitization and again on Day 10. The plantar edema inhibitory rate and the body weight gain rate was determined by comparison with the non-sensitized rat groups.

[2] = test system: Adjuvant Induced Arthritis in Rats; test: Adjuvant-induced arthritis model in rats (paw weight, inhibition of inflammation); type: in vivo, male Sprague-Dawley rats
Experimental: Adjuvant-induced arthritis responds to both steroids and non-steroids. The degree of inflammation will be assessed by measuring differences in foot weight and/or the foot volume.
as §1
[…] The test compound and hydrocortisone were given by gavage.
Male Sprague-Dawley rats (150-200 g) were sensitized by injecting Fruend's complete adjuvant (0.5% suspension of killed mycobacterium tuberculosis (H37RA, Difco, in mineral oil)). A 0.1 ml aliquot was administered intradermally at a plantar site on the right hind leg of each rat.
The test materials were given orally (by gavage) to each of 5 rats per treatment group once per day for 10 days. […]
as §2
The paw weights for each group were averaged. Anti-inflammatory activity was determined by comparing paw weights calculated as follows: […]

[3] = mice
Experimental: One tenth (0.1 ml) of the above suspension is inoculated into the left hind leg muscle (hamstring muscle mass) of each mouse. The inoculated mice are placed into one large cage and then randomly segregated into groups of five mice. The mice are housed in shoe box cages on wood shavings with free access to water and laboratory chow. The mice are weighed on the day of inoculation, on day 7, day 12, at time of sacrifice.

Row | Compound | Body Weight Gains of Rats ([1]; 10 mg/kg by gavage once per day for 10 days) | % Inhibition ([2]; 10 mg/kg by gavage once per day for 10 days, adjuvant-induced inflammation, rats) [%] | Raw Paw Weight ([2]; rats sensitized with Freund's complete adjuvant, oral gavage once per day for 10 days, Day 10, dose for this column not stated) [g] | Average Weight Gain ([3]; 1 mcg/kg dose by gavage for 11 days) [g] | Average Weight Gain ([3]; 10 mcg/kg dose by gavage for 11 days) [g] | weight gain associated with administration versus control (in words) ([3]; gavage for 11 days) | Body Weight Gains of Rats ([1]; 1 mcg/kg by gavage once per day for 10 days) | Body Weight Gains of Rats ([1]; 10 mcg/kg by gavage once per day for 10 days) | weight loss (in words) ([1]; rats, 10 mcg/kg and 1 mcg/kg by gavage for 10 days)
1 | C[C@]12CCC(=O)C=C1CC[C@@H]1[C@@H]2[C@@H](O)C[C@@]2(C)[C@H]1CC[C@]2(O)C(=O)CO [Hydrocortisone] | 22.2 | 95.6 | 0.69 |  |  |  |  |  | 
2 | YGSRS [Peptide, tyrosine-glycine-serine-arginine-serine] |  |  |  | 1.85 | 1.87 | comparable to the control | 40.1 | 39.4 | without inducing weight loss
